Reference: ChEMBL document CHEMBL1165955, “Synthesis and biological evaluation of novel (4 or 5-aryl)pyrazolyl-indoles as inhibitors of interleukin-2 inducible T-cell kinase (ITK)” (Bioorg Med Chem, 2010)
The source made the active and inactive calls. The rule behind the calls is not given here.

How the values were obtained:
[1] = biological target: T1, Tyrosine-protein kinase ITK/TSK (Homo sapiens, UniProt Q08881); assay: Inhibition of GST-tagged full length recombinant ITK after 2 hrs by IMAP assay
T1 sequence (Q08881 whole entry): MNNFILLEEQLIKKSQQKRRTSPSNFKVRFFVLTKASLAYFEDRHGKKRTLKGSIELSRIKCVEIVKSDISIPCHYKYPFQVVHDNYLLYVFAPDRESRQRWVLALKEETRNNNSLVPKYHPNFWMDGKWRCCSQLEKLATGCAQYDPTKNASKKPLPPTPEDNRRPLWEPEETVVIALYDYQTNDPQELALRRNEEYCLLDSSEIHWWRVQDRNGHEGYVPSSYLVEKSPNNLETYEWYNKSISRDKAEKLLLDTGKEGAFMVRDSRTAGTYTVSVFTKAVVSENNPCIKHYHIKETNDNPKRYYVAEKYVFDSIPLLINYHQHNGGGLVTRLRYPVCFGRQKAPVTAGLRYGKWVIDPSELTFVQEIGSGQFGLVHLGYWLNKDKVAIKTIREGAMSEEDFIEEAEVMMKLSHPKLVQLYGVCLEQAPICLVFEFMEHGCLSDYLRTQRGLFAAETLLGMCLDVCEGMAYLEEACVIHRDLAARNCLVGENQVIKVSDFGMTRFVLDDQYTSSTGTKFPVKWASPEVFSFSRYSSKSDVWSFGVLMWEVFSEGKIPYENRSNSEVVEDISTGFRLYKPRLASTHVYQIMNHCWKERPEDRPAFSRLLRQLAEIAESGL

[2] = biological target: Cyclin-dependent kinase 2/cyclin E1 (Homo sapiens, UniProt P24941); assay: (§1) Inhibition of GST-tagged full length CDK2/Cyclin E after 40 mins by IMAP assay; type: protein-complex assay
[3] = Inhibition of histidine-tagged PKA catalytic domain after 40 mins by IMAP assay
[4] = biological target: Glycogen synthase kinase-3 beta (Homo sapiens, UniProt P49841); assay: Inhibition of GST-tagged full length GSK3-beta assessed as inhibition of ATP consumption after 60 mins by luminescence assay
Chain of Glycogen synthase kinase-3 beta (P49841 whole entry, the tested form may be a part): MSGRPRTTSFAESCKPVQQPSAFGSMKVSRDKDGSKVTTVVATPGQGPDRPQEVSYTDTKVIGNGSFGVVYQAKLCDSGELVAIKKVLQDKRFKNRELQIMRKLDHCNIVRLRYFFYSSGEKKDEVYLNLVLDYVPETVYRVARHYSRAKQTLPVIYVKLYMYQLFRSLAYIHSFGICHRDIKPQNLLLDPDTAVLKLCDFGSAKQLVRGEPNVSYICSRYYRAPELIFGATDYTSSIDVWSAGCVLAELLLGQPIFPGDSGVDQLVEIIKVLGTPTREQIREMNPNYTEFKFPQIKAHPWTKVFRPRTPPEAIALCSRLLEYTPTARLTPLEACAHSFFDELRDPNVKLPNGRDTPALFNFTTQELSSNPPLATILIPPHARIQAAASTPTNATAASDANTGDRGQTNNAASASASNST

[5] = biological target: Insulin receptor (Homo sapiens, UniProt P06213); assay: Inhibition of GST-tagged recombinant INSR catalytic domain expressed in baculovirus-infected Sf21 cells after 80 mins by IMAP assay
Chain of Insulin receptor (P06213 28-758 limits assumed): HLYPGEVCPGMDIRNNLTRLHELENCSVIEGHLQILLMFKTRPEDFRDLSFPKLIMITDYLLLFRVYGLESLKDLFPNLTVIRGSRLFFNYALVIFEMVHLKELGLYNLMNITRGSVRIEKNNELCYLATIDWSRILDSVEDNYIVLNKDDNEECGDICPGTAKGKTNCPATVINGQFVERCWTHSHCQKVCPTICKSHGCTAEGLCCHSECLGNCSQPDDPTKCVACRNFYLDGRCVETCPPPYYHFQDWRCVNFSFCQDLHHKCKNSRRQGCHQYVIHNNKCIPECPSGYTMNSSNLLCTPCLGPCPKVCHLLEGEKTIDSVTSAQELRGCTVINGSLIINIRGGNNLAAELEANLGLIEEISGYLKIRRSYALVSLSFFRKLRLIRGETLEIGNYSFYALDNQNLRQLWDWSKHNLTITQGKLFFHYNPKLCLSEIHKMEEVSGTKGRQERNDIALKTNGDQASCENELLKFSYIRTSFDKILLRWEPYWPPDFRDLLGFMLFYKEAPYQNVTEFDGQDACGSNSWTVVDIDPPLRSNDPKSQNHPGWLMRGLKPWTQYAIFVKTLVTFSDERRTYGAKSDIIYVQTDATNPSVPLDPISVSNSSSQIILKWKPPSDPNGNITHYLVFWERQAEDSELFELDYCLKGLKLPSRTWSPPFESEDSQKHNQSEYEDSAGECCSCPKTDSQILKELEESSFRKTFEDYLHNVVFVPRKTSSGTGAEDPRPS
Chain of Insulin receptor (P06213 763-1382 limits assumed): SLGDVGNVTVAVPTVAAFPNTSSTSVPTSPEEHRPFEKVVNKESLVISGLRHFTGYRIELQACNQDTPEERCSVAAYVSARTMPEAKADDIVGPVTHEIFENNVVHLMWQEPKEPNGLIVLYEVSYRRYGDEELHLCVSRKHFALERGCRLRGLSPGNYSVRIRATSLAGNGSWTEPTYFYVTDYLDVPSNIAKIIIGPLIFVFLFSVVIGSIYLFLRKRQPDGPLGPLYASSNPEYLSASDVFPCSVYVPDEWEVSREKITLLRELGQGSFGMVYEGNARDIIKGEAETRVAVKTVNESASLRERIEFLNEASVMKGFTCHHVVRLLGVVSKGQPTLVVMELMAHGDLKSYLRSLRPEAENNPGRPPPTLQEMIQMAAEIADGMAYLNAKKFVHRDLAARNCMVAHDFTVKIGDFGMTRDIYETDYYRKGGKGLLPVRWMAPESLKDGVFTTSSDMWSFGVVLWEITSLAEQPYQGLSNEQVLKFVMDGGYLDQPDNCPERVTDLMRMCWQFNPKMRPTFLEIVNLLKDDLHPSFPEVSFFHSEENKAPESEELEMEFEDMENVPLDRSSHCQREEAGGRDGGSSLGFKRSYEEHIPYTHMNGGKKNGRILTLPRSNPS

[6] = biological target: Cyclin-dependent kinase 2/cyclin E1 (Homo sapiens, UniProt P24864+P24941); assay: as §1; type: protein-complex assay
[7] = biological target: RAC-alpha serine/threonine-protein kinase (Homo sapiens) (UniProt P31749); assay: Inhibition of histidine-tagged full length AKT1 after 1 hr by IMAP assay
Chain of RAC-alpha serine/threonine-protein kinase (Homo sapiens) (P31749 whole entry, the tested form may be a part): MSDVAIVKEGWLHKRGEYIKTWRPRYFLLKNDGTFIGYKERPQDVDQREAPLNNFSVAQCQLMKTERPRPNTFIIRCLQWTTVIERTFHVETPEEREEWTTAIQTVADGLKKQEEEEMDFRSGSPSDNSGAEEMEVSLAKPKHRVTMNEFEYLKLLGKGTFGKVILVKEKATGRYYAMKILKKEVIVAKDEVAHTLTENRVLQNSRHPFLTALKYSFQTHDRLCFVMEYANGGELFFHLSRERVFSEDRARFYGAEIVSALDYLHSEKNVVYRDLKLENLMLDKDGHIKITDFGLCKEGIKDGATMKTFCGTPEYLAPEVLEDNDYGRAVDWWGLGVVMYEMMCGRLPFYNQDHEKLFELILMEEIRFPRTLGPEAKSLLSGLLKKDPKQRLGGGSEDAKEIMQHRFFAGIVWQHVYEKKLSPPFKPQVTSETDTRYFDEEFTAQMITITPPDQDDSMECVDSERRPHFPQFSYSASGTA

[8] = Selectivity ratio of IC50 for GST-tagged recombinant INSR catalytic domain to IC50 for GST-tagged full length recombinant ITK

Row | IC50 [1] [nM] | IC50 [2] [nM] | IC50 [5] [nM] | SMILES | further results
1 | 500 |  |  | CC(C)CN(C)C(=O)c1ccc2c(CNCc3ccc(F)cc3)c(-c3cc(Cc4ccccc4)[nH]n3)[nH]c2c1 | 
2 | 1820 |  |  | Cc1oncc1CNC(=O)c1ccc2cc(-c3cc(-c4ccccc4)[nH]n3)[nH]c2c1 | 
3 | 1260 |  |  | Cn1cncc1CNC(=O)c1ccc2cc(-c3cc(-c4ccccc4)[nH]n3)[nH]c2c1 | 
4 | 2510 |  |  | COCCNC(=O)c1ccc2cc(-c3n[nH]cc3-c3ccccc3)[nH]c2c1 | 
5 | 790 | 630 | 7080 | Cn1cncc1CNC(=O)c1ccc2cc(-c3n[nH]cc3-c3ccccc3)[nH]c2c1 | IC50 ([3]; read-out: IC50): 10000 nM; IC50 ([4]; read-out: IC50): 540 nM
6 | 560 |  | > 100000 | CC(C)CN(C)C(=O)c1ccc2cc(-c3cc(Cc4ccccc4)[nH]n3)[nH]c2c1 | IC50 [6]: Not Active; IC50 [3]: Not Active; IC50 [4]: Not Active; inhibition [7]: inactive
7 | > 100000 |  |  | CC(C)CN(C)C(=O)c1ccc2c(CNCCCO)c(-c3n[nH]cc3-c3ccccc3)[nH]c2c1 | 
8 | 630 | 31600 | 5010 | Cn1cncc1CNC(=O)c1ccc2cc(-c3cc(Cc4ccccc4)[nH]n3)[nH]c2c1 | IC50 [3]: Not Active; IC50 [4]: Not Active
9 | 1580 |  |  | Cn1nccc1CNC(=O)c1ccc2c(CO)c(-c3cc(Cc4ccccc4)[nH]n3)[nH]c2c1 | 
10 | 3160 |  |  | Cn1nccc1CNC(=O)c1ccc2cc(-c3cc(-c4ccccc4)[nH]n3)[nH]c2c1 | 
11 | 630 |  |  | Cn1cncc1CNC(=O)c1ccc2c(CN3CCOCC3)c(-c3cc(Cc4ccccc4)[nH]n3)[nH]c2c1 | 
12 | 20400 |  |  | COc1ccc(CNCc2c(-c3n[nH]cc3-c3ccccc3)[nH]c3cc(C(=O)N(C)CC(C)C)ccc23)cc1 | 
13 | 630 | 400 | 5750 | Cc1oncc1CNC(=O)c1ccc2cc(-c3n[nH]cc3-c3ccccc3)[nH]c2c1 | IC50 ([3]; read-out: IC50): 5010 nM; IC50 ([4]; read-out: IC50): 2290 nM
14 | > 100000 |  |  | CC(C)CN(C)C(=O)c1ccc2c(CO)c(-c3n[nH]cc3-c3ccccc3)[nH]c2c1 | 
15 | 850 |  |  | CC(C)CN(C)C(=O)c1ccc2cc(-c3cc(-c4ccccc4)[nH]n3)[nH]c2c1 | 
16 | 3160 |  |  | COCCNC(=O)c1ccc2cc(-c3cc(-c4ccccc4)[nH]n3)[nH]c2c1 | 
17 | 330 | 3160 | > 10000 | CC(C)CN(C)C(=O)c1ccc2cc(-c3n[nH]cc3-c3ccccc3)[nH]c2c1 | IC50 [3]: Not Active; IC50 ([4]; read-out: IC50): 6760 nM; Ratio IC50 [8]: > 30
18 | 1000 | 12600 | 20000 | Cn1nccc1CNC(=O)c1ccc2cc(-c3cc(Cc4ccccc4)[nH]n3)[nH]c2c1 | IC50 [3]: Not Active; IC50 [4]: Not Active
19 | 630 | 160 | 9330 | Cn1nccc1CNC(=O)c1ccc2cc(-c3n[nH]cc3-c3ccccc3)[nH]c2c1 | IC50 ([3]; read-out: IC50): 7080 nM; IC50 ([4]; read-out: IC50): 1260 nM
20 | 5000 |  |  | CNC(=O)c1ccc2c(CNCc3ccncc3)c(-c3cc(Cc4ccccc4)[nH]n3)[nH]c2c1 | 
